Laboratory results taken from US20260234159A1, “SMALL MOLECULE TREATMENT OF FATTY LIVER DISEASE AND HCC” (SCANDIEDGE THERAPEUTICS AB, priority 2023, published 2026).

How the values were obtained:
[1] = MTT cell viability after one week steatosis (ranking of target molecules); assay type: cell-based, human; details: human, HepG2 cells (wild type); HepG2, 10 μM, one week steatosis induce media, MTT; Control 100.00
Procedure, shortened: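 HepG2 cells, 60,000 per well, kept one week in steatosis medium (high-glucose DMEM, 10 μg/ml insulin, 10 μM T0901317) with 10 μM compound. Medium changed at day 0, 3 and 5. Viability measured by MTT.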

HepG2 cells = experiment: FACs analysis with PI staining (cell cycle); assay type: cell-based, human; details: for Cell population G0/G1 / Cell population G2/M / Cell population S: PI FACs, 10 μM, 2 days
Protocol: 400,000 HepG2 cells were seeded in a 6-well plated and treated with 10 μM of the compounds for 2 days. Cells were fixed with 70% ethanol and stained with 50 μg/ml PI. Prepared cells were analysed using BD FACS Canto II Flow Cytometry system at PE-A channel 10,000 cells per group. The data was histogram plotted with BD FACSDiva 9.0.

[2] = In vivo toxicological study in rats: clinical observations and body weight; details: 300 mg/kg oral administration
Protocol: Forty-two male and forty-two female rats of the Wistar strain were allocated to the study. Three groups of three males and three females were given doses of 30, 100 and 300 mg/kg of target compounds (Table 8). The vehicle was 1.5 w/w % HPMC, 1.5 w/w % PS80 in 10 mM PBS, pH 7 and dose volume were 5 mL/kg.
The animals were acclimatised at least 14 day prior to the study and exposed to a 12 hours light, 12 hours dark light cycle. The formulations were administered via oral gavage. Administration occurred once daily in the morning for seven consecutive days.
A check of animal health and welfare status was done at least once on working days and weekend days.
Body weights were recorded the week before and within 24 hours before start of dosing, on Day 3 and on necropsy Day 8.

[3] = In vivo toxicological study in rats: haematology; design: species or system rats of the Wistar strain
Protocol: Forty-two male and forty-two female rats of the Wistar strain were allocated to the study. Three groups of three males and three females were given doses of 30, 100 and 300 mg/kg of target compounds (Table 8). The vehicle was 1.5 w/w % HPMC, 1.5 w/w % PS80 in 10 mM PBS, pH 7 and dose volume were 5 mL/kg. The animals were acclimatised at least 14 day prior to the study and exposed to a 12 hours light, 12 hours dark light cycle. The formulations were administered via oral gavage. Administration occurred once daily in the morning for seven consecutive days. Blood for scheduled haematology and plasma chemistry were taken at necropsy. For plasma chemistry, 0.6 ml blood (lithium heparin) per animal and for haematology, 0.5 ml blood (K2EDTA) per animal. The blood and plasma were analysed using Exigo analyzer and Vetscan equipment. Blood was analysed within 60 min of sampling. On the morning of analysis, the Exigo analyzer was checked against a reference sample provided by the manufacturer, and a control sample analysis cycle was performed (Table 9).

[4] = female, 30 mg/kg oral daily 7 d
[5] = female, 100 mg/kg oral daily 7 d
[6] = female, 300 mg/kg oral daily 7 d

## N#Cc1c(NC(=O)c2cccc3ccccc23)sc2c1CCN(CC(=O)Nc1cccc(Br)c1)C2 [PKL-B171]
[1]
  viability at 1 week, 10 µM: 22%
HepG2 cells
  Cell population G0/G1: 6.6
  Cell population G2/M: 79.1
  Cell population S: 3.6
HepG2 cells; histogram plots
  cells in the G2/M phase: around 89%
[2]
  tolerability (adverse clinical signs, body weight, clinical pathology parameters): well tolerated
[3]; [4]
  GRAN: 0.77 10^9/l
  HCT: 43.0%
  HGB: 15.3 g/dL
  LYM: 4.6 10^9/l
  MCH: 18.9 pg
  MCHC: 35.6 g/dL
  MCV: 53.3 fL
  MONO: 0.13 10^9/l
  PLT: 933 10^9/l
  RBC: 8.08 10^12/l
  RDW %: 14.6%
  WBC: 5.5 10^9/l
[3]; [5]
  GRAN: 0.77 10^9/l
  HCT: 40.8%
  HGB: 14.4 g/dL
  LYM: 4.4 10^9/l
  MCH: 19.7 pg
  MCHC: 35.4 g/dL
  MCV: 55.5 fL
  MONO: 0.10 10^9/l
  PLT: 1106 10^9/l
  RBC: 7.36 10^12/l
  RDW %: 14.1%
  WBC: 5.2 10^9/l
[3]; [6]
  GRAN: 1.23 10^9/l
  HCT: 40.5%
  HGB: 14.4 g/dL
  LYM: 5.7 10^9/l
  MCH: 19.1 pg
  MCHC: 35.7 g/dL
  MCV: 53.5 fL
  MONO: 0.17 10^9/l
  PLT: 1027 10^9/l
  RBC: 7.55 10^12/l
  RDW %: 14.2%
  WBC: 7.1 10^9/l
[3]; male, 30 mg/kg oral daily 7 d
  GRAN: 1.17 10^9/l
  HCT: 40.6%
  HGB: 14.4 g/dL
  LYM: 6.3 10^9/l
  MCH: 19.7 pg
  MCHC: 35.4 g/dL
  MCV: 55.5 fL
  MONO: 0.17 10^9/l
  PLT: 991 10^9/l
  RBC: 7.31 10^12/l
  RDW %: 14.8%
  WBC: 7.7 10^9/l
[3]; male, 100 mg/kg oral daily 7 d
  GRAN: 1.30 10^9/l
  HCT: 43.2%
  HGB: 15.2 g/dL
  LYM: 6.6 10^9/l
  MCH: 20.1 pg
  MCHC: 35.2 g/dL
  MCV: 57.1 fL
  MONO: 0.17 10^9/l
  PLT: 981 10^9/l
  RBC: 7.57 10^12/l
  RDW %: 14.9%
  WBC: 8.1 10^9/l
[3]; male, 300 mg/kg oral daily 7 d
  GRAN: 1.40 10^9/l
  HCT: 43.6%
  HGB: 15.4 g/dL
  LYM: 7.0 10^9/l
  MCH: 19.6 pg
  MCHC: 35.4 g/dL
  MCV: 55.4 fL
  MONO: 0.20 10^9/l
  PLT: 1115 10^9/l
  RBC: 7.87 10^12/l
  RDW %: 15.1%
  WBC: 8.6 10^9/l

## N#Cc1c(NC(=O)c2cccc3ccccc23)sc2c1CCN(C(=O)Nc1ccccc1OC(F)(F)F)C2 [PKL-A159]
[1]
  viability at 1 week, 10 µM: 2.33%
HepG2 cells
  Cell population G0/G1: 30.5
  Cell population G2/M: 62.4
  Cell population S: 3.3
[2]
  tolerability (adverse clinical signs, body weight, clinical pathology parameters): well tolerated
[3]; [4]
  GRAN: 0.80 10^9/l
  HCT: 40.3%
  HGB: 14.4 g/dL
  LYM: 4.9 10^9/l
  MCH: 19.4 pg
  MCHC: 35.7 g/dL
  MCV: 54.5 fL
  MONO: 0.13 10^9/l
  PLT: 1028 10^9/l
  RBC: 7.39 10^12/l
  RDW %: 14.1%
  WBC: 5.9 10^9/l
[3]; [5]
  GRAN: 0.77 10^9/l
  HCT: 41.2%
  HGB: 14.5 g/dL
  LYM: 5.8 10^9/l
  MCH: 18.9 pg
  MCHC: 35.2 g/dL
  MCV: 53.8 fL
  MONO: 0.10 10^9/l
  PLT: 994 10^9/l
  RBC: 7.66 10^12/l
  RDW %: 14.6%
  WBC: 6.7 10^9/l
[3]; [6]
  GRAN: 0.93 10^9/l
  HCT: 41.1%
  HGB: 14.5 g/dL
  LYM: 5.3 10^9/l
  MCH: 19.4 pg
  MCHC: 35.2 g/dL
  MCV: 55.2 fL
  MONO: 0.17 10^9/l
  PLT: 808 10^9/l
  RBC: 7.45 10^12/l
  RDW %: 14.4%
  WBC: 6.4 10^9/l
[3]; male, 30 mg/kg oral daily 7 d
  GRAN: 1.03 10^9/l
  HCT: 40.9%
  HGB: 14.5 g/dL
  LYM: 2.8 10^9/l
  MCH: 19.9 pg
  MCHC: 35.4 g/dL
  MCV: 56.3 fL
  MONO: 0.10 10^9/l
  PLT: 1117 10^9/l
  RBC: 7.26 10^12/l
  RDW %: 15.1%
  WBC: 3.9 10^9/l
[3]; male, 100 mg/kg oral daily 7 d
  GRAN: 1.43 10^9/l
  HCT: 42.4%
  HGB: 14.9 g/dL
  LYM: 7.1 10^9/l
  MCH: 19.9 pg
  MCHC: 35.3 g/dL
  MCV: 56.4 fL
  MONO: 0.23 10^9/l
  PLT: 974 10^9/l
  RBC: 7.51 10^12/l
  RDW %: 15.4%
  WBC: 8.7 10^9/l
[3]; male, 300 mg/kg oral daily 7 d
  GRAN: 1.00 10^9/l
  HCT: 42.4%
  HGB: 14.8 g/dL
  LYM: 4.6 10^9/l
  MCH: 19.6 pg
  MCHC: 35.1 g/dL
  MCV: 55.8 fL
  MONO: 0.10 10^9/l
  PLT: 1200 10^9/l
  RBC: 7.59 10^12/l
  RDW %: 15.3%
  WBC: 5.7 10^9/l
